Assay results: patent US20230060820A1, “OCTENIDINE SALT ANTIMICROBIAL MEDICAL ARTICLES” (3M INNOVATIVE PROPERTIES COMPANY, priority 2019, published 2023)
Where a name gives a salt, the structure may show the parent alone. Read-outs that look alike come from different tables or passages of the source.

What was measured:
[1] = cited from earlier work; for Solubility: previous reports
[2] = Solubilization of octenidine hydrochloride in solvents (homogeneous solution); assay type: physicochemical; conditions: for Homogeneous solution: 10% (w/w), room temperature 20-25° C.
Description: Previous reports have shown that octenidine hydrochloride is soluble in both propylene glycol and ethylhexylglycerine, both of which are diol solvents. Hydrogen-bonding solvents with different functionalities were tested for their ability to solvate octenidine hydrochloride. Each solvent was combined with octenidine hydrochloride at 10% (w/w) with mixing at room temperature, i.e., 20-25° C. In some cases, sonication and/or heat were added to hasten dissolution.

[3] = higher than chlorhexidine; cited from earlier work

Structure (SMILES): N=C(NCCCCCCNC(=N)NC(=N)Nc1ccc(Cl)cc1)NC(=N)Nc1ccc(Cl)cc1.O=C(O)[C@H](O)[C@@H](O)[C@H](O)[C@H](O)CO.O=C(O)[C@H](O)[C@@H](O)[C@H](O)[C@H](O)CO [chlorhexidine gluconate, Chlorhexidine digluconate]
- Homogenous solution formation ([1]; in glycol fatty monoesters, known): do not form homogenous solutions

Structure (SMILES): CCCCCCCCN=c1ccn(CCCCCCCCCCn2ccc(=NCCCCCCCC)cc2)cc1 [octenidine hydrochloride, Octenidine hydrochloride]
- Homogeneous solution ([2]; in 2-octyldodecanol): No
- Homogeneous solution ([2]; in glycerol monocaprylate): Yes
- Homogeneous solution ([2]; in glycerol monoisostearate): Yes
- Solubility ([2]; in glycol fatty monoesters): soluble
- Homogeneous solution ([2]; in lauramide diethanolamine): Yes
- Homogeneous solution ([2]; in methoxyisopropanol): Yes
- Homogeneous solution ([2]; in propylene glycol dicaprylate/caprate): No
- Homogeneous solution ([2]; in propylene glycol monoheptanoate): Yes
- Homogeneous solution ([2]; in propylene glycol monolaurate): Yes
- Homogeneous solution ([2]; in propylene glycol): Yes
- Solubility ([2]; in the glycol fatty diester): insoluble
- Solubility ([2]; in the monohydric alcohol): insoluble
- Solubility ([1]; in ethylhexylglycerine): soluble
- Solubility ([1]; in propylene glycol): soluble
- Antimicrobial efficacy relative to chlorhexidine [3]: 3-10 times
